Here are results for 17 molecules from patent publication US20260070929A1, “METHODS AND COMPOSITIONS FOR MODULATING KRAS(G12D)” (Ranok Therapeutics (Hangzhou) Co. LTD., priority 2022, published 2026).

As usually defined, the IC50 is the concentration at which inhibition is half-maximal. In general, EC50 refers to the midpoint of the concentration-response curve.

Molecules are shown by their SMILES. Bounds are passed on as bounds.

One assay has as its target T1, KRAS(G12D)/SOS1 (Homo sapiens, UniProt P01116, G12D).
T1 construct: purchased Cisbio 63ADK000CB17PEH
Nature of the assay: KRAS(G12D)/SOS1 homogeneous time-resolved fluorescence (HTRF) assay. It counts as binding. The settings on record: absence of GTP; 4° C., 3 hr. The essentials:
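Disruption of the KRAS(G12D)/SOS1 pairing, in the absence of GTP, was read by time-resolved FRET after a 3 hr sealed incubation at 4 °C. Test compounds spanned 20 µM down to 1.02 nM in 3-fold steps. IC50 values correspond to half-maximal inhibition.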

Assay [1] concerns AGS gastric carcinoma cells [heterozygous G12D]. Nature of the assay: Cancer cell line proliferation (CellTiter-Glo), AGS. It counts as cell-based. The settings on record: Homo sapiens, 72 hr treatment, read-out: AGS CTG (EC50). The essentials: (§1)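 Luminescent ATP read-out (CellTiter-Glo) after 72 hr drug exposure gives the EC50. Test compounds were prepared as 3-fold serial dilutions between 20 μM and 1.02 nM, with 0.5% DMSO final per well.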
On the technique in general: In ATP-based viability assays light output follows the ATP content of the culture.

In assay [2] the test system is A-427 lung carcinoma cells [heterozygous G12D]. As to the kind of experiment: Cancer cell line proliferation (CellTiter-Glo), A-427. The settings on record: Homo sapiens, A-427 cells, 72 hr treatment, read-out: A427 CTG (EC50). It counts as cell-based. The essentials: as §1
Assay [3] concerns ASPC1 pancreatic adenocarcinoma cells [homozygous G12D]. As to the kind of experiment: Cancer cell line proliferation (CellTiter-Glo), ASPC1. The class given is cell-based. The settings on record: Homo sapiens, ASPC1, 72 h, 72 hr treatment, read-out: ASPC-1 CTG (EC50). In a few lines:
as §1

In assay [4] the test system is SW1990 pancreatic adenocarcinoma cells [homozygous G12D]. As to the kind of experiment: Cancer cell line proliferation (CellTiter-Glo), SW1990. It counts as cell-based. The settings on record: Homo sapiens, 72 hr treatment, read-out: SW1990 CTG (EC50). On the procedure:
The following cancer cell lines were employed: AGS gastric carcinoma [heterozygous G12D](ATCC, CRL-1739); A-427 lung carcinoma [heterozygous G12D](ATCC, HTB-53); ASPC1 pancreatic adenocarcinoma [homozygous G12D](ATCC, CRL-1682) and SW1990 pancreatic adenocarcinoma [homozygous G12D](ATCC CRL-2172). Cell lines were cultured essentially according to ATCC recommendations.
AGS, A-427, ASPC1, SW1990, and GP2D cells were plated in 96-well tissue culture plates at 4,000 cells/well and incubated at 37° C./5% CO2 for 72 hr in 100 μl of media. 3-fold serial dilutions of each test compound were prepared ranging from 20 μM to 1.02 nM. Each cell line was then treated with test compounds at various concentrations with a final concentration of 0.5% DMSO/well, and then incubated at 37° C./5% CO2 for 72 hr. 100 µl of CellTiter-Glo® Reagent (Promega Corporation, Madison, WI) was added to each well and processed according manufacturer's protocol. Results were analyzed and EC50 values were calculated in GraphPad 7 software.

T1 sequence (P01116 1-188 isoform P01116-2 G12D): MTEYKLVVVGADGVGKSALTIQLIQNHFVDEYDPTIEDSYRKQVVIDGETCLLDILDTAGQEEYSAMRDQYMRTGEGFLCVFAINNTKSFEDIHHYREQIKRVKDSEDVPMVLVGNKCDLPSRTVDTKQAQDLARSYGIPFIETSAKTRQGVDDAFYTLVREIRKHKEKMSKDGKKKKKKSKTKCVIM

Turning to `CC(C)c1cc(C(=O)N2Cc3ccc(CN4CCN([C@H]5C[C@@H](COc6nc(N7CC8CCC(C7)N8)c7cnc(-c8cc(O)cc9ccccc89)c(F)c7n6)N(C)C5)CC4)cc3C2)c(O)cc1O` [Compound 25], the IC50 on KRAS(G12D)/SOS1 was below 0.1 µM. For the same molecule, the EC50 in assay [1] was below 0.1 µM; in assay [2], 0.1 to 1 µM; in assay [3], above 1 µM; in assay [4] it was below 0.1 µM.
Consider `CC(C)c1cc(C(=O)N2Cc3ccc(CN4CCN([C@H]5C[C@@H](COc6nc(N7CC8CCC(C7)N8)c7cnc(-c8cccc9ccccc89)c(F)c7n6)N(C)C5)CC4)cc3C2)c(O)cc1O` [Compound 35], for which the IC50 at KRAS(G12D)/SOS1 was above 1 µM. Besides, the EC50 in assay [1], in assay [2], in assay [3] and in assay [4] was 0.1 to 1 µM each time.
`C#Cc1cccc2cccc(-c3ncc4c(N5CC6CCC(C5)N6)nc(OCC5(CN6CCN(Cc7ccc(-n8c(C(=O)NCC(F)(F)F)nnc8-c8cc(C(C)C)c(O)cc8O)cc7)CC6)CC5)nc4c3F)c12` [Compound 54] had an IC50 against KRAS(G12D)/SOS1 below 0.1 µM. In addition, the EC50 was below 0.1 µM in assay [1], 0.1 to 1 µM in assay [2], 0.1 to 1 µM in assay [3] and below 0.1 µM in assay [4].
Take `C#Cc1cccc2cccc(-c3ncc4c(N5CC6CCC(C5)N6)nc(OCC5(CN6CCN(Cc7ccc(-n8c(C(=O)NC(C)C(F)(F)F)nnc8-c8cc(C(C)C)c(O)cc8O)cc7)CC6)CC5)nc4c3F)c12` (stereo not drawn) [Compound 55]: at KRAS(G12D)/SOS1, the IC50 lay within 0.1 to 1 µM. In addition, the EC50 in assay [1], in assay [2], in assay [3] and in assay [4] was 0.1 to 1 µM each time.
Turning to `CCNC(=O)c1nnc(-c2cc(C(C)C)c(O)cc2O)n1-c1ccc(CN2CCC(C(=O)N3CCN([C@H]4C[C@@H](COc5nc(N6CC7CCC(C6)N7)c6cnc(-c7cccc(C)c7C)c(F)c6n5)N(C)C4)CC3)CC2)cc1` [Compound 56], the IC50 on KRAS(G12D)/SOS1 was above 1 µM. Further, the EC50 in assay [1] is below 0.1 µM; in assay [2], 0.1 to 1 µM; in assay [3], 0.1 to 1 µM; in assay [4] it was below 0.1 µM.
As for `CC(C)c1cc(C(=O)N2Cc3ccc(CN4CCN([C@H]5C[C@@H](COc6nc(N7CC8CCC(C7)N8)c7cnc(-c8ccccc8C(F)(F)F)c(F)c7n6)N(C)C5)CC4)cc3C2)c(O)cc1O` [Compound 58], the IC50 at KRAS(G12D)/SOS1 is above 1 µM. Moreover, the EC50 was below 0.1 µM in assay [1], below 0.1 µM in assay [2], 0.1 to 1 µM in assay [3] and 0.1 to 1 µM in assay [4].
`CCNC(=O)c1nnc(-c2cc(C(C)C)c(O)cc2O)n1-c1ccc(CN2CCC(CN3CCN([C@H]4C[C@@H](COc5nc(N6CC7CCC(C6)N7)c6cnc(-c7cccc(F)c7C)c(F)c6n5)N(C)C4)CC3)CC2)cc1` [Compound 83]: the IC50 against KRAS(G12D)/SOS1 was above 1 µM. In addition, the EC50 in assay [1], in assay [2] and in assay [4] was below 0.1 µM in each case.
On to `COc1cccc2cccc(-c3ncc4c(N5CC6CCC(C5)N6)nc(OC[C@@H]5C[C@H](N6CCN(Cc7ccc8c(c7)CN(C(=O)c7cc(C(C)C)c(O)cc7O)C8)CC6)CN5C)nc4c3F)c12` [Compound 102], for which, at KRAS(G12D)/SOS1, the IC50 was in the range of 0.1 to 1 µM. The EC50 in assay [1], in assay [2], in assay [3] and in assay [4] was 0.1 to 1 µM in each case.
On to `CCNC(=O)c1nnc(-c2cc(C(C)C)c(O)cc2O)n1-c1ccc(CN2CCN([C@H]3C[C@@H](COc4nc(N5CC6CCC(C5)N6)c5cnc(-c6cccc7cccc(OC)c67)c(F)c5n4)N(C)C3)CC2)cc1` [Compound 103], for which the IC50 against KRAS(G12D)/SOS1 was above 1 µM. Besides, the EC50 in assay [1] is below 0.1 µM; in assay [2], 0.1 to 1 µM; in assay [3] it was 0.1 to 1 µM; in assay [4], 0.1 to 1 µM.
On to `Cc1cccc2cccc(-c3ncc4c(N5CC6CCC(C5)N6)nc(OC[C@@H]5CC[C@H](CN6CCN(Cc7ccc(-n8c(C(=O)NC(C)C(F)(F)F)nnc8-c8cc(C(C)C)c(O)cc8O)cc7)CC6)N5C)nc4c3F)c12` (stereo partly drawn) [Compound 107], for which, on KRAS(G12D)/SOS1, the IC50 lay in the range of 0.1 to 1 µM. For the same molecule, the EC50 in assay [1], in assay [2], in assay [3] and in assay [4] was 0.1 to 1 µM each time.
In the case of `C#Cc1cccc2cc(O)cc(-c3ncc4c(N5CC6CCC(C5)N6)nc(OCC5(CN6CCN(CC7CCN(Cc8ccc9c(c8)CN(C(=O)c8cc(C(C)C)c(O)cc8O)C9)CC7)CC6)CC5)nc4c3F)c12` [Compound 117], the EC50 is below 0.1 µM in assay [1], 0.1 to 1 µM in assay [2], 0.1 to 1 µM in assay [3] and below 0.1 µM in assay [4].
`C#Cc1cccc2cc(O)cc(-c3ncc4c(N5CC6CCC(C5)N6)nc(OCC5(CN6CCC(C(=O)N7CCN(Cc8ccc(-n9c(C(=O)NC(C)C(F)(F)F)nnc9-c9cc(C(C)C)c(O)cc9O)cc8)CC7)CC6)CC5)nc4c3F)c12` (stereo not drawn) [Compound 120] yielded an IC50 against KRAS(G12D)/SOS1 below 0.1 µM. For the same molecule, the EC50 is below 0.1 µM in assay [1], 0.1 to 1 µM in assay [2], 0.1 to 1 µM in assay [3] and below 0.1 µM in assay [4].
In the case of `C#Cc1c(F)ccc2cc(O)cc(-c3ncc4c(N5CC6CCC(C5)N6)nc(OCC5(CN6CCN(C7CCN(Cc8ccc(-n9c(C(=O)NC(C)C(F)(F)F)nnc9-c9cc(C(C)C)c(O)cc9O)cc8)CC7)CC6)CC5)nc4c3F)c12` (stereo not drawn) [Compound 160], the EC50 in assay [1], in assay [2], in assay [3] and in assay [4] was below 0.1 µM each time.
At KRAS(G12D)/SOS1, `C#Cc1c(F)ccc2cc(O)cc(-c3ncc4c(N5CC6CCC(C5)N6)nc(OCC5(CN6CCN(CC7CN(Cc8ccc9c(c8)CN(C(=O)c8cc(C(C)C)c(O)cc8O)C9)C7)CC6)CC5)nc4c3F)c12` [Compound 164] yielded an IC50 below 0.1 µM. Besides, the EC50 is below 0.1 µM in assay [1], 0.1 to 1 µM in assay [3] and below 0.1 µM in assay [4].
`C#Cc1c(F)ccc2cc(O)cc(-c3ncc4c(N5CC6CCC(C5)N6)nc(OCC5(CN6CCN(CC7CN(Cc8ccc(-n9c(C(=O)NC(C)C(F)(F)F)nnc9-c9cc(C(C)C)c(O)cc9O)cc8)C7)CC6)CC5)nc4c3F)c12` (stereo not drawn) [Compound 165]: the IC50 on KRAS(G12D)/SOS1 was below 0.1 µM. Also, the EC50 in assay [1] is below 0.1 µM; in assay [3] it was 0.1 to 1 µM; in assay [4], below 0.1 µM.
`C#Cc1c(F)ccc2cc(O)cc(-c3ncc4c(N5CC6CCC(C5)N6)nc(OCC5(CN6CCN(CC7CN(Cc8ccc(-n9c(C(=O)NCC(F)(F)F)nnc9-c9cc(C(C)C)c(O)cc9O)cc8)C7)CC6)CC5)nc4c3F)c12` [Compound 166] came in with an IC50 against KRAS(G12D)/SOS1 below 0.1 µM. The EC50 in assay [1], in assay [3] and in assay [4] was below 0.1 µM throughout.
Consider `C#Cc1cccc2cc(O)cc(-c3ncc4c(N5CC6CCC(C5)N6)nc(OCC5(CN6CCN(CC7CCN(Cc8ccc(-n9c(C(=O)NCC)nnc9-c9cc(C(C)C)c(O)cc9O)cc8)CC7)CC6)CC5)nc4c3F)c12` [Example 2, 4-(4-{[4-({4-[(1-{[(4-{3,8-diazabicyclo[3.2.1]octan-3-yl}-7-(8-ethynyl-3-hydroxynaphthalen-1-yl)-8-fluoropyrido[4,3-d]pyrimidin-2-yl)oxy]methyl}cyclopropyl)methyl]piperazin-1-yl}methyl)piperidin-1-yl]methyl}phenyl)-5-(2,4-dihydroxy-5-isopropylphenyl)-N-ethyl-1,2,4-triazole-3-carboxamide], for which the EC50 in assay [1], in assay [2], in assay [3] and in assay [4] was below 0.1 µM in each case.
